Among the data in the supplement of paper PMC10307832 are relative viability values, retold here.

What all share (test): relative viability (nuclei count vs DMSO), 5 days (fraction); higher = more cells survive
Compound in the experiment “Irinotecan + OSI-027”: CCc1c2c(nc3ccc(OC(=O)N4CCC(N5CCCCC5)CC4)cc13)-c1cc3c(c(=O)n1C2)COC(=O)[C@]3(O)CC [Irinotecan] + COc1cccc2cc(-c3nc([C@H]4CC[C@H](C(=O)O)CC4)n4ncnc(N)c34)[nH]c12 [OSI-027] (partner 0.5 µM)
Put shortly: (§1)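 Lung cancer cell lines in 1536-well plates got either a single drug or a fixed anchor-drug dose together with five library-drug doses (not always all listed) in √10 steps, by pin tool, on the day after seeding. Nuclei were counted after 5 days, and relative viability is the treated-to-vehicle ratio of nuclei counts. Values are medians of duplicate plates.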

Compound in the experiment “RU-SKI 43 + Palbociclib”: CC[C@@H](C)CNCC(=O)N1CCC2=C([C@@H]1COC3=CC=CC(=C3)C)C=CS2 [RU-SKI 43] + CC(=O)c1c(C)c2cnc(Nc3ccc(N4CCNCC4)cn3)nc2n(C2CCCC2)c1=O [Palbociclib] (partner 0.5 µM)
Put shortly:
as §1

Compound in the experiment “RU-SKI 43 + Dasatinib”: CC[C@@H](C)CNCC(=O)N1CCC2=C([C@@H]1COC3=CC=CC(=C3)C)C=CS2 [RU-SKI 43] + Cc1nc(Nc2ncc(C(=O)Nc3c(C)cccc3Cl)s2)cc(N2CCN(CCO)CC2)n1 [Dasatinib] (partner 0.075 µM)
Put shortly: as §1

Compound in the experiment “Irinotecan + AZD7762”: CCc1c2c(nc3ccc(OC(=O)N4CCC(N5CCCCC5)CC4)cc13)-c1cc3c(c(=O)n1C2)COC(=O)[C@]3(O)CC [Irinotecan] + NC(=O)Nc1cc(-c2cccc(F)c2)sc1C(=O)N[C@H]1CCCNC1 [AZD7762] (partner 0.2 µM)
Put shortly:
as §1

Take 201T: the relative viability with Irinotecan + OSI-027 (first compound 0.6325 µM) turned out to be 0.723; with Irinotecan + OSI-027 (first compound 2 µM) it was 0.643; in the experiment with Irinotecan + OSI-027 (first compound 6.325 µM), 0.344; in the experiment with Irinotecan + OSI-027 (first compound 20 µM), 0.153; with RU-SKI 43 + Palbociclib (first compound 0.1 µM), 0.367; in the experiment with RU-SKI 43 + Palbociclib (first compound 0.3162 µM), 0.329. For the same cell line, the relative viability in the experiment with RU-SKI 43 + Palbociclib (first compound 1 µM) worked out at 0.368; in the experiment with RU-SKI 43 + Palbociclib (first compound 3.162 µM), 0.361; with RU-SKI 43 + Palbociclib (first compound 10 µM), 0.361; with RU-SKI 43 + Dasatinib (first compound 0.1 µM), 0.565; with RU-SKI 43 + Dasatinib (first compound 0.3162 µM), 0.547; with RU-SKI 43 + Dasatinib (first compound 1 µM) it was 0.624. In addition, the relative viability with RU-SKI 43 + Dasatinib (first compound 3.162 µM) came to 0.627; with RU-SKI 43 + Dasatinib (first compound 10 µM), 0.56; in the experiment with Irinotecan + AZD7762 (first compound 0.6325 µM), 0.456; with Irinotecan + AZD7762 (first compound 2 µM) it was 0.416; with Irinotecan + AZD7762 (first compound 6.325 µM), 0.345; with Irinotecan + AZD7762 (first compound 20 µM), 0.266.

Consider A-427, for which the relative viability in the experiment with Irinotecan + OSI-027 (first compound 2 µM) was found to be 0.315; with Irinotecan + OSI-027 (first compound 6.325 µM), 0.244; with Irinotecan + OSI-027 (first compound 20 µM) it was 0.227; with RU-SKI 43 + Palbociclib (first compound 0.1 µM), 0.536; with RU-SKI 43 + Palbociclib (first compound 0.3162 µM), 0.532; with RU-SKI 43 + Palbociclib (first compound 1 µM) it was 0.523. The relative viability turned out to be 0.564 with RU-SKI 43 + Palbociclib (first compound 3.162 µM); 0.503 with RU-SKI 43 + Palbociclib (first compound 10 µM); 0.823 with RU-SKI 43 + Dasatinib (first compound 0.1 µM); 0.656 with RU-SKI 43 + Dasatinib (first compound 0.3162 µM); 0.693 with RU-SKI 43 + Dasatinib (first compound 1 µM); 0.718 in the experiment with RU-SKI 43 + Dasatinib (first compound 3.162 µM). Further, the relative viability was found to be 0.643 in the experiment with RU-SKI 43 + Dasatinib (first compound 10 µM); 0.712 with Irinotecan + AZD7762 (first compound 0.6325 µM); 0.642 in the experiment with Irinotecan + AZD7762 (first compound 2 µM); 0.315 with Irinotecan + AZD7762 (first compound 6.325 µM); 0.18 with Irinotecan + AZD7762 (first compound 20 µM).

Take ABC-1: the relative viability in the experiment with Irinotecan + OSI-027 (first compound 2 µM) was determined as 0.494; with Irinotecan + OSI-027 (first compound 6.325 µM), 0.341; with Irinotecan + OSI-027 (first compound 20 µM) it was 0.093; with RU-SKI 43 + Palbociclib (first compound 0.1 µM), 0.517; in the experiment with RU-SKI 43 + Palbociclib (first compound 0.3162 µM), 0.824; with RU-SKI 43 + Palbociclib (first compound 1 µM) it was 0.719. In addition, the relative viability was determined as 0.866 with RU-SKI 43 + Palbociclib (first compound 3.162 µM); 0.636 in the experiment with RU-SKI 43 + Palbociclib (first compound 10 µM); 0.664 with RU-SKI 43 + Dasatinib (first compound 0.1 µM); 0.443 with RU-SKI 43 + Dasatinib (first compound 0.3162 µM); 0.638 in the experiment with RU-SKI 43 + Dasatinib (first compound 1 µM); 0.553 with RU-SKI 43 + Dasatinib (first compound 3.162 µM). Besides, the relative viability is 0.501 with RU-SKI 43 + Dasatinib (first compound 10 µM), 0.718 with Irinotecan + AZD7762 (first compound 2 µM), 0.308 with Irinotecan + AZD7762 (first compound 6.325 µM) and 0.422 with Irinotecan + AZD7762 (first compound 20 µM).

For the cell line BEN, the relative viability with Irinotecan + OSI-027 (first compound 0.6325 µM) turned out to be 0.296; with Irinotecan + OSI-027 (first compound 2 µM) it was 0.271; in the experiment with Irinotecan + OSI-027 (first compound 6.325 µM), 0.31; in the experiment with Irinotecan + OSI-027 (first compound 20 µM), 0.255; in the experiment with RU-SKI 43 + Palbociclib (first compound 0.1 µM), 0.489; with RU-SKI 43 + Palbociclib (first compound 0.3162 µM), 0.468. Further, the relative viability turned out to be 0.523 with RU-SKI 43 + Palbociclib (first compound 1 µM); 0.46 in the experiment with RU-SKI 43 + Palbociclib (first compound 3.162 µM); 0.451 in the experiment with RU-SKI 43 + Palbociclib (first compound 10 µM); 0.333 in the experiment with RU-SKI 43 + Dasatinib (first compound 0.1 µM); 0.253 with RU-SKI 43 + Dasatinib (first compound 0.3162 µM); 0.474 in the experiment with RU-SKI 43 + Dasatinib (first compound 1 µM). Further, the relative viability is 0.272 with RU-SKI 43 + Dasatinib (first compound 3.162 µM); 0.316 with RU-SKI 43 + Dasatinib (first compound 10 µM); 0.55 in the experiment with Irinotecan + AZD7762 (first compound 0.6325 µM); 0.677 with Irinotecan + AZD7762 (first compound 2 µM); 0.447 with Irinotecan + AZD7762 (first compound 6.325 µM); 0.472 with Irinotecan + AZD7762 (first compound 20 µM).

For the cell line COR-L23, the relative viability with Irinotecan + OSI-027 (first compound 0.6325 µM) was 0.578; in the experiment with Irinotecan + OSI-027 (first compound 2 µM) it was 0.556; in the experiment with Irinotecan + OSI-027 (first compound 6.325 µM), 0.179; with Irinotecan + OSI-027 (first compound 20 µM) it was 0.145; with RU-SKI 43 + Palbociclib (first compound 0.1 µM), 0.288; with RU-SKI 43 + Palbociclib (first compound 0.3162 µM) it was 0.241. For the same cell line, the relative viability worked out at 0.311 with RU-SKI 43 + Palbociclib (first compound 1 µM); 0.357 in the experiment with RU-SKI 43 + Palbociclib (first compound 3.162 µM); 0.277 with RU-SKI 43 + Palbociclib (first compound 10 µM); 0.461 with RU-SKI 43 + Dasatinib (first compound 0.1 µM); 0.491 with RU-SKI 43 + Dasatinib (first compound 0.3162 µM); 0.55 with RU-SKI 43 + Dasatinib (first compound 1 µM). The relative viability with RU-SKI 43 + Dasatinib (first compound 3.162 µM) was determined as 0.445; with RU-SKI 43 + Dasatinib (first compound 10 µM), 0.443.

For the cell line COR-L 105, the relative viability was determined as 0.773 with Irinotecan + OSI-027 (first compound 0.6325 µM); 0.859 in the experiment with Irinotecan + OSI-027 (first compound 2 µM); 0.565 with Irinotecan + OSI-027 (first compound 6.325 µM); 0.166 with Irinotecan + OSI-027 (first compound 20 µM); 0.39 with RU-SKI 43 + Palbociclib (first compound 0.1 µM); 0.367 with RU-SKI 43 + Palbociclib (first compound 0.3162 µM). Further, the relative viability with RU-SKI 43 + Palbociclib (first compound 1 µM) was found to be 0.433; with RU-SKI 43 + Palbociclib (first compound 3.162 µM), 0.395; with RU-SKI 43 + Palbociclib (first compound 10 µM), 0.363; with RU-SKI 43 + Dasatinib (first compound 0.1 µM), 0.323; with RU-SKI 43 + Dasatinib (first compound 0.3162 µM), 0.259; in the experiment with RU-SKI 43 + Dasatinib (first compound 1 µM), 0.304. The relative viability worked out at 0.36 with RU-SKI 43 + Dasatinib (first compound 3.162 µM) and 0.335 with RU-SKI 43 + Dasatinib (first compound 10 µM).

Regarding HCC-44, the relative viability worked out at 0.721 with Irinotecan + OSI-027 (first compound 2 µM); 0.289 with Irinotecan + OSI-027 (first compound 6.325 µM); 0.213 in the experiment with Irinotecan + OSI-027 (first compound 20 µM); 0.942 with RU-SKI 43 + Palbociclib (first compound 0.1 µM); 0.987 in the experiment with RU-SKI 43 + Palbociclib (first compound 0.3162 µM); 0.97 in the experiment with RU-SKI 43 + Palbociclib (first compound 1 µM). Besides, the relative viability with RU-SKI 43 + Palbociclib (first compound 3.162 µM) worked out at 1.03; with RU-SKI 43 + Palbociclib (first compound 10 µM), 0.953; with Irinotecan + AZD7762 (first compound 0.6325 µM), 0.909; with Irinotecan + AZD7762 (first compound 2 µM), 1.03; with Irinotecan + AZD7762 (first compound 6.325 µM), 0.798; with Irinotecan + AZD7762 (first compound 20 µM), 0.486.

Turning to NCI-H520, the relative viability with Irinotecan + OSI-027 (first compound 0.6325 µM) stood at 0.292; with Irinotecan + OSI-027 (first compound 2 µM), 0.316; with Irinotecan + OSI-027 (first compound 6.325 µM), 0.218; with Irinotecan + OSI-027 (first compound 20 µM), 0.192; in the experiment with RU-SKI 43 + Palbociclib (first compound 0.1 µM) it was 0.247; with RU-SKI 43 + Palbociclib (first compound 0.3162 µM), 0.241. In addition, the relative viability with RU-SKI 43 + Palbociclib (first compound 1 µM) was 0.259; with RU-SKI 43 + Palbociclib (first compound 3.162 µM), 0.237; with RU-SKI 43 + Palbociclib (first compound 10 µM) it was 0.148; in the experiment with RU-SKI 43 + Dasatinib (first compound 0.1 µM), 0.188; with RU-SKI 43 + Dasatinib (first compound 0.3162 µM) it was 0.233; with RU-SKI 43 + Dasatinib (first compound 1 µM), 0.297. The relative viability in the experiment with RU-SKI 43 + Dasatinib (first compound 3.162 µM) worked out at 0.272; with RU-SKI 43 + Dasatinib (first compound 10 µM), 0.191.

On to NCI-H596, for which the relative viability with Irinotecan + OSI-027 (first compound 0.6325 µM) stood at 0.579; with Irinotecan + OSI-027 (first compound 2 µM), 0.927; with Irinotecan + OSI-027 (first compound 6.325 µM), 0.728; with Irinotecan + OSI-027 (first compound 20 µM), 0.581; in the experiment with RU-SKI 43 + Dasatinib (first compound 0.1 µM), 0.635; with RU-SKI 43 + Dasatinib (first compound 0.3162 µM) it was 0.646. In addition, the relative viability in the experiment with RU-SKI 43 + Dasatinib (first compound 1 µM) was 0.62; with RU-SKI 43 + Dasatinib (first compound 3.162 µM), 0.653; with RU-SKI 43 + Dasatinib (first compound 10 µM), 0.587; with Irinotecan + AZD7762 (first compound 0.6325 µM), 1.07; with Irinotecan + AZD7762 (first compound 2 µM), 1.15; in the experiment with Irinotecan + AZD7762 (first compound 6.325 µM) it was 0.88. Further, the relative viability with Irinotecan + AZD7762 (first compound 20 µM) turned out to be 0.913.
